The source of these data is PMC12430429, “Synthesis, Structure, DNA/BSA Binding, DNA Cleaving, Cytotoxic and SOD Mimetic Activities of Copper(II) Complexes Derived from Methoxybenzylamine Schiff Base Ligands” (Molecules, 2025).

The subject of one data set is ct-DNA. Briefly: DNA binding study by UV–Vis absorption titration. Set-up: species or system calf. The settings on record: intraligand band ca. 370 nm on addition of ct-DNA. As for the experimental part: The absorption spectra of complexes 4a–c (1 × 10^−[…]) were recorded in the presence of increasing amounts of ct-DNA. Intraligand absorption bands with λmax in the region 350 –380 nm were used to monitor the interaction of compounds with ct-DNA. The intraligand absorption value was chosen as λmax = […], so the absorbance of DNA would not interfere. The UV–Vis spectrum affected by DNA addition is shown for complexes 4a in Figure 3, and the UV–Vis spectra of other compounds are provided in the Supplementary Materials (Figure S3-1).
The DNA binding constants (Kb) of the complexes were determined by the Wolfe–Shimer equation (Equation (1)) and the respective plots (Figure 3 and Figure S3-1).
The interactions of prepared complexes 4a–c with ct-DNA have been studied by UV–Vis monitored titration. The ct-DNA solution was prepared by dissolving 6 mg of ct-DNA in 5 mL of citrate buffer (composed of 15 mM sodium citrate and 150 mM sodium chloride mixture solution, at pH = 7.0). The concentration of ct-DNA was then determined by UV–Vis spectroscopy with the molar absorption coefficient of ct-DNA at 260 nm (6600 M^−1cm^−1). The studied complexes were dissolved in DMSO, from which working solutions were prepared by dilution using citrate buffer solution. Increasing concentrations of ct-DNA were then added to a buffer/DMSO solution (<1% DMSO) of the corresponding complex (1 × 10^−[…]).
For the values of the binding strength of the interaction between the complex and the DNA molecule, binding constants Kb were calculated by the ratio of slope to the y intercept in the plots [DNA]/(εA-εf) compared to [DNA], according to the Wolfe–Shimer equation (Equation (1)):(1) [DNA]/(εA−εf)=[DNA]/(εb−εf)+1/Kb(εb−εf) where [DNA] is the concentration of DNA in base pairs, εf is the extinction coefficient of the free complex at the corresponding λmax, εA = Aobsd/[compound] and εb is the extinction coefficient of the complex in the fully bound form.

For a further data set, the system named is S. cerevisiae cells. The data set can be described thus: Resazurin cytotoxicity assay (mitochondrial activity). Type of data set: cell-based. The settings on record: for Cell Death (%) / Reduction Percentage (%): 3 h incubation. From the text:
The resazurin-based model that monitors mitochondrial activity is widely used as an indicator of cell viability, proliferation and cytotoxicity. This method is based on the reduction of resazurin to resorufin by mitochondrial enzymes, as carriers of diaphorase activities, like NADPH-dehydrogenase, which are responsible for the transference of electrons from NADPH^+, H^+ to resazurin. The reduction of resazurin correlates with the number of live bacterial or mammalian cells or fungi. Furthermore, S. cerevisiae is an established model system for eukaryotic organisms. They have conserved cellular processes with high homology to those of humans. They proliferate rapidly and are even used as a model to study the effects of anticancer agents. The use of S. cerevisiae in resazurin redox testing is a good alternative to conventional cell viability testing techniques.
The assay is based on the ability of living cells to reduce blue resazurin (7-hydroxy-3H-phenoxazin-3-one 10-oxide) to pink resorufin (7-hydroxy-3H-phenoxazin-3-one) which is measurable by the UV–Vis spectrophotometric or fluorometric method (AlamarBlue^TM). Living cells have active N-methylphenazinium methosulfate that catalyzes the redox reaction in mitochondria of NADH and blue resazurin to produce pink resorufin (Scheme 2). This test is used as an oxidation–reduction indicator in cell viability assays for yeasts and mammalian cells. Reduction of the dye by viable cells decreases the amount of the oxidized form (blue) and, at the same time, increases the amount of its fluorescent intermediate (pink), indicating the degree of cytotoxicity caused by the test material.
S. cerevisiae cells (CCY 21-4-64; Libáň, Czech Republic) were cultured at 28 °C/24h on Saburaud’s dextrose agar with chloramphenicol (Merck, Boston, MA, USA). Subsequently, after 24 h, S. cerevisiae cells were inoculated into sterile liquid YPD medium (Sigma–Aldrich, St. Louis, MO, USA) and cultivation continued at 28 °C/24 h. In the exponential growth phase, cells were centrifuged (8.000 g/3 min), washed twice with sterile physiological solution (0.9% NaCl) and pipetted at a concentration of 1 × 10^9 cells/mL in sterile microtubes (modified procedure from Bitacura, 2018). Sterile physiological solution and copper complexes at concentrations of 1 × 10^−3 M, 3 × 10^−3 M and 5 × 10^−3 M were added to the centrifuged biomass to a total volume of 1 mL and individual samples were cultured in an incubator at 28 °C/3 h. After 3 h, 0.1 mL of ResazurinOX (in vitro toxicology assay kit based on resazurin, Sigma, USA) was added to each sample and the samples were allowed to culture for 2 h. After incubation, the biomass in the samples was separated from the supernatant by centrifugation (8000 g/5 min). The separated solution was diluted in a ratio of 1:1 with physiological solution and subjected to the measurement of UV spectra by the spectrophotometric method according to the recommended protocol of the kit manufacturer (Sigma, USA) on a GENESYS 10S UV–Vis spectrophotometer (Thermo Scientific, USA) in the range of 500–800 nm, using a 1 cm long cuvette.
Cells’ innate metabolic was measured by using an established formula for the reduction percentage. The reduction percentage was calculated using the following formula:(7) Red(%)=ƐOX_600 nm×A570 nm_sample−ƐOX_570 nm×A600 nm_sample/ƐRED_570 nm×A600 nm_C−−ƐRED_600 nm×A570 nm_C−×100
A general note: The colour change of resazurin is a common sign of viable cells or microbes.

On to `COc1ccccc1CN=Cc1ccccc1[O-].COc1ccccc1CN=Cc1ccccc1[O-].[Cl-].[Cl-].[Cu+2].[Cu+2]` [Complex 4a, [Cu2 (Sal-2-MeOBn)2 Cl2]], for which, in the data set with ct-DNA, the “decrease of intensity (ΔA/A0), hypochromism” value (shortened to “decrease of intensity (ΔA/A0)”) is reported as 32%. The “Cell Death (%)” value in the data set on S. cerevisiae cells (complex 1 mM) is on record as 67.1%; in the data set on S. cerevisiae cells (complex 3 mM), 91.6%; in the data set on S. cerevisiae cells (complex 5 mM), 96.5%. The “Reduction Percentage (%)” value was 32.9% in the data set with S. cerevisiae cells (complex 1 mM), 8.4% in the data set on S. cerevisiae cells (complex 3 mM) and 3.5% in the data set on S. cerevisiae cells (complex 5 mM).

With `COc1cccc(CN=Cc2ccccc2[O][Cu][O]c2ccccc2C=NCc2cccc(OC)c2)c1` [Complex 4b, [Cu (Sal-3-MeOBn)2]], the “decrease of intensity (ΔA/A0)” value in the data set with ct-DNA amounted to 26%. Besides, the “Cell Death (%)” value with S. cerevisiae cells (complex 1 mM) amounted to 76.0%; in the data set on S. cerevisiae cells (complex 3 mM), 92.6%; with S. cerevisiae cells (complex 5 mM), 99.0%. Besides, the “Reduction Percentage (%)” value in the data set with S. cerevisiae cells (complex 1 mM) was found to be 24.0%; with S. cerevisiae cells (complex 3 mM), 7.4%; in the data set with S. cerevisiae cells (complex 5 mM), 1.0%.

Turning to `COc1ccc(CN=Cc2ccccc2[O-])cc1.COc1ccc(CN=Cc2ccccc2[O-])cc1.[Cl-].[Cl-].[Cu+2].[Cu+2]` [Complex 4c, [Cu2 (Sal-4-MeOBn)2 Cl2]], the “decrease of intensity (ΔA/A0)” value with ct-DNA worked out at 28%. Further, the “Reduction Percentage (%)” value in the data set with S. cerevisiae cells (complex 1 mM) turned out to be 5.2%; with S. cerevisiae cells (complex 3 mM) it was 8.5%; with S. cerevisiae cells (complex 5 mM), 2.6%. The “Cell Death (%)” value turned out to be 91.5% with S. cerevisiae cells (complex 3 mM) and 97.4% with S. cerevisiae cells (complex 5 mM). Besides, the “cytotoxic activity (cell death)” value with S. cerevisiae cells (over the tested concentrations 1–5 mM) is “above 94%”.
